# Data reported in patent US20100048597A1 (Novartis AG, priority 2006, published 2010).
# Key:
# CDK9/cyclinT1 = target: T1, CDK9/cyclinT1 (Homo sapiens, UniProt P50750); assay: CDK9/cyclinT1 kinase assay, IMAP fluorescence polarization; type: biochemical
# T1 construct: purchased Millipore
# In short: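 Recombinant purified enzyme complexes assayed by IMAP fluorescence polarization with 1% final DMSO, 2 h at room temperature; stopped with 1× Developer buffer (85% A/15% B) plus IMAP beads 1/400, then 1 h further at room temperature. IC50 from normalized mP versus log compound concentration.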
# CDK2/cyclinA = target: T2, CDK2/cyclinA (Homo sapiens, UniProt P24941); assay: CDK2/cyclinA kinase assay, IMAP fluorescence polarization; type: biochemical
# T2 construct: purchased Millipore
# In short: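 Recombinant purified enzyme reactions run 2 hours at room temperature with 1% DMSO final. Stopped with 1× Developer buffer (100% A) and IMAP beads 1/400, then 1 hour more before fluorescence polarization read. IC50 from mP values versus log concentration.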
# CDK5 = CDK5 (Homo sapiens, UniProt Q00535); assay: CDK5 kinase assay (Table F); type: biochemical
# CDK7/cyclinH/MAT1 = target: T3, CDK7/cyclinH/MAT1 (Homo sapiens, UniProt P50613); assay: CDK7/cyclinH/Mat1 kinase assay, IMAP fluorescence polarization; type: biochemical
# T3 construct: purchased Millipore
# Description: Kinase assays were performed on recombinant purified enzymes using the non-radioactive IMAP fluorescence polarization assay format.
# Compound stocks were prepared and diluted in DMSO and were added to kinase reactions at a 1/100 dilution for a final concentration of 1% DMSO. The components were added together to final concentrations listed in the tables below and incubated for two hours at room temperature.
# The reactions were stopped by addition of stop solution.
# CDK9/CDK1/CDK7: final stop concentration is 1× Developer buffer (85% A/15% B), IMAP beads 1/400
# The samples were allowed to incubate for one more hour at room temperature and then the fluorescence polarization was measured. The plate normalized millipolarization (mP) values were plotted against the log of compound concentration for each compound and IC50 values were calculated using the spotfire IC50 calculator and confirmed by visual analysis.
# [1] = test system: RNA Polymerase II CTD Serine2 Phosphorylation; assay: H5 (Ser2) Ab High Content Screen: RNA Polymerase II CTD Serine2 Phosphorylation Assay in Hep3B cells; type: cell-based; settings: Homo sapiens, 2 hours with compound, H5 antibody staining
# Description: H5 (also referred as Ser2) Ab High Content Screen: RNA Polymerase II CTD Serine2 Phosphorylation Assay
# 1. Cells are plated into 384 well plates: 30 μl of Hep3B cells (4,000 cells/30 μl) in DMEM with 3% FBS are plated into wells of a tissue culture treated clear bottomed 384 well plate. Cells are allowed to adhere during an overnight incubation.
# 2. Cells are treated with compounds for two hours: 10 μl of DMEM with 3% FBS is added to each well with a final concentration of DMSO equal to 1%. Cells are incubated with compounds for 2 hours.
# 3. Cells are fixed and permeabilized. Cells are washed with 30 mM HEPES pH=7.3 then fixed in 4% paraformaldehyde in 30 mM HEPES pH=7.3 for one hour at room temperature. The fix is removed by washing the cells with Tris buffered saline (TBS) and the cells are permeabilized by incubation in TBS with 0.5% triton X-100 for 30 minutes at room temperature. Triton is removed by washing the cells with TBS.
# 4. […] Incubate primary H5 Ab (1/250 ) overnight at 4 degrees in TBS with 1% BSA and 0.1% Tween-20. The next day wash cells with TBS. […] Wash cells with PBS.
# 5. Measure staining using the In-cell Analyzer system from GE Healthcare.
# CDK1/cyclinB = target: T4, CDK1/cyclinB (Homo sapiens, UniProt P06493); assay: CDK1/cyclinB kinase assay, IMAP fluorescence polarization; type: biochemical; settings: read-out: CDK1 IC50
# T4 construct: purchased Millipore
# In short: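 IMAP fluorescence polarization assay on recombinant purified enzyme, compounds at final 1% DMSO. Reaction run 2 h at room temperature, stopped, held 1 h more before reading polarization.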
# CDK4 = CDK4 (Homo sapiens, UniProt P11802); assay: CDK4 kinase assay (Table F); type: biochemical
# neointima formation = settings: rats; cited from earlier work
# T1 sequence (P50750 whole entry): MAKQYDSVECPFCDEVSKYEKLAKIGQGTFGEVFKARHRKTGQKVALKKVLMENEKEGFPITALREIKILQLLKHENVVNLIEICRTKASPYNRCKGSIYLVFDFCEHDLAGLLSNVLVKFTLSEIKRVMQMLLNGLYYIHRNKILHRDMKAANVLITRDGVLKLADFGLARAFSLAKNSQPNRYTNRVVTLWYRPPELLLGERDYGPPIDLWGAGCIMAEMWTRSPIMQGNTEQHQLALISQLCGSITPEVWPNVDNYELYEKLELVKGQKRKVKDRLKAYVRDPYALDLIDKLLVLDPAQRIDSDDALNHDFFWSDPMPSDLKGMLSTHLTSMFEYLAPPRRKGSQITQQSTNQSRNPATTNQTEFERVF
# T1 sequence (O60563 whole entry partner): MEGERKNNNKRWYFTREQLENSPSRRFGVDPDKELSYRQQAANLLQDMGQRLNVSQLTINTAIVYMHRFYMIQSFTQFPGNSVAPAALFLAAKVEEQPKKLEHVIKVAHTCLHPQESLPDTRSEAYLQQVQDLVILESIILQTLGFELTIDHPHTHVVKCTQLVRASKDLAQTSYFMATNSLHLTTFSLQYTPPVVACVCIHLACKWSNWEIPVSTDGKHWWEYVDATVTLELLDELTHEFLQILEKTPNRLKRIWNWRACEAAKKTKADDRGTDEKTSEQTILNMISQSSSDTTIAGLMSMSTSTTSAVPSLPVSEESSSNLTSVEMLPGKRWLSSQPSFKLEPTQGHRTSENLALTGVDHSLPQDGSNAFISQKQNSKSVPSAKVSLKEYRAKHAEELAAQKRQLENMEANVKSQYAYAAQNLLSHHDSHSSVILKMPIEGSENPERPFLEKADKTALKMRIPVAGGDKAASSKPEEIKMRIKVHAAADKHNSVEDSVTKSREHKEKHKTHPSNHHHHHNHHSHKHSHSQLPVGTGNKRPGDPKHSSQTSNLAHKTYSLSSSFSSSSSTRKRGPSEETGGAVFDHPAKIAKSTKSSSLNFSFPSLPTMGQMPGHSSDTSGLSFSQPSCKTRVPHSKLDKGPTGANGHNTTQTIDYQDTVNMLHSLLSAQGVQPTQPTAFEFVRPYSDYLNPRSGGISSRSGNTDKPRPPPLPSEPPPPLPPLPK
# CDK4, sequence (P11802 whole entry, species assumed): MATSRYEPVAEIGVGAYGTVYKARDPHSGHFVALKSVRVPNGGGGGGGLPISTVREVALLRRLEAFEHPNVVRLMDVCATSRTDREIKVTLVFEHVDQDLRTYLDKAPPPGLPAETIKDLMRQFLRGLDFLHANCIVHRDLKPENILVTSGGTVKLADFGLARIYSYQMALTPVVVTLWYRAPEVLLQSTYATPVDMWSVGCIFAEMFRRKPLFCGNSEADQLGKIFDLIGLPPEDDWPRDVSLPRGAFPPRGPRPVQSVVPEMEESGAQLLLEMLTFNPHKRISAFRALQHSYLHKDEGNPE
# CDK4, sequence (P24385 whole entry partner, species assumed): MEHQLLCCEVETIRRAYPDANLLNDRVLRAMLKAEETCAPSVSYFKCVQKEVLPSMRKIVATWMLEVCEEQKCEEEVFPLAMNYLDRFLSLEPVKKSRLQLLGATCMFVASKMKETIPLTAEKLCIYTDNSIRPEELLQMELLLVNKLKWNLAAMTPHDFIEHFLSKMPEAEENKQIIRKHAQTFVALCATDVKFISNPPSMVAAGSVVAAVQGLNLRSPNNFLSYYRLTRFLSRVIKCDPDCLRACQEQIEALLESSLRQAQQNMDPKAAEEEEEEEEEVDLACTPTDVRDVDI
# T3 sequence (P50613 whole entry): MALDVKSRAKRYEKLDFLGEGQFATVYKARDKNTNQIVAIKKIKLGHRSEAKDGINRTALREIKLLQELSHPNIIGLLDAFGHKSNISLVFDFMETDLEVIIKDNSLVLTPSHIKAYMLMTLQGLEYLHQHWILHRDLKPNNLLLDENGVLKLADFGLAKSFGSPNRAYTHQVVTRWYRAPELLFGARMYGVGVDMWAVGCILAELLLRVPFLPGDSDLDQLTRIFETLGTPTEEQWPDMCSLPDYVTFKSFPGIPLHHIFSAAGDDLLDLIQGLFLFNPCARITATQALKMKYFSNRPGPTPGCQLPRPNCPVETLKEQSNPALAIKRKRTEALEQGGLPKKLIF
# T3 sequence (P51946 whole entry partner): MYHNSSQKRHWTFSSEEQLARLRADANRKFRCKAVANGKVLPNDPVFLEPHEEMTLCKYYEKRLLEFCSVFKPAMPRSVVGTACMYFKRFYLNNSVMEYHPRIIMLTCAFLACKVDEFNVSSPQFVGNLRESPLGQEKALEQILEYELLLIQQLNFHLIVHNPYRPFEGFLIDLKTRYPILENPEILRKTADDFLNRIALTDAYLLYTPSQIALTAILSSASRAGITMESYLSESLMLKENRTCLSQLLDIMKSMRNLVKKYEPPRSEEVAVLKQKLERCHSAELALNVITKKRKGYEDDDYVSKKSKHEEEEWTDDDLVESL
# T3 sequence (P51948 whole entry partner): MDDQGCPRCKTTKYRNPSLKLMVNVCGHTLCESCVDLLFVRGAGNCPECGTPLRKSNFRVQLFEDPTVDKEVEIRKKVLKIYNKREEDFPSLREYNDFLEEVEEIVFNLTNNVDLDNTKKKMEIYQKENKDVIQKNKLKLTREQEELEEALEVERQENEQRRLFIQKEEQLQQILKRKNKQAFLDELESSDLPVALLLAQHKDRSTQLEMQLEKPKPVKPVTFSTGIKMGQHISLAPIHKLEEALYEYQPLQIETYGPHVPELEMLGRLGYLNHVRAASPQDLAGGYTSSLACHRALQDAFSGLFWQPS
# CDK5, sequence (Q00535 whole entry, species assumed): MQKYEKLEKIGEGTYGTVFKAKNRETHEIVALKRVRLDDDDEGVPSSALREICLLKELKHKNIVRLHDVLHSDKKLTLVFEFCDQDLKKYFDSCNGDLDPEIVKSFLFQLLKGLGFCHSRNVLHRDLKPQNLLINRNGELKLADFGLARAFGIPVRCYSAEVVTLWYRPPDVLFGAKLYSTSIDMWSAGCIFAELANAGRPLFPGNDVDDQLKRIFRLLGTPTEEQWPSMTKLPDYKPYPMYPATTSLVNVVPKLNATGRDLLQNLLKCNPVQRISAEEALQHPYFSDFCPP
# CDK5, sequence (Q15078 whole entry partner, species assumed): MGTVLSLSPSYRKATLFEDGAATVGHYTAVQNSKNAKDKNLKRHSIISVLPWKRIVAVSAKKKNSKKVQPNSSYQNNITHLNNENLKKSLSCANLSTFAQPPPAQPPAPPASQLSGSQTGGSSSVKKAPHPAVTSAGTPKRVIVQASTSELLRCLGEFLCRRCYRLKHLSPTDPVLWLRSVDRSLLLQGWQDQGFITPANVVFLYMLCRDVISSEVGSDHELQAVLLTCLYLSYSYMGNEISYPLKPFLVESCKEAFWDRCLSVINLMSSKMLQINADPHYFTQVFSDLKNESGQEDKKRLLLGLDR
# T4 sequence (P06493 whole entry): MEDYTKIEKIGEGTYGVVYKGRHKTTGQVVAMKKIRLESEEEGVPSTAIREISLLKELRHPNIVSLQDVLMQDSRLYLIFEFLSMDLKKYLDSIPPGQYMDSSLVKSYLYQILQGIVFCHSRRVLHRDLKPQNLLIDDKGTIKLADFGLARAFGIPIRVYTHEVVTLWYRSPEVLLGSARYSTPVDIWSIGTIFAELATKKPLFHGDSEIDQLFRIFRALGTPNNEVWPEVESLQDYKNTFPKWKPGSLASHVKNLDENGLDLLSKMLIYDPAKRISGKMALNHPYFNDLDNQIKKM
# T4 sequence (P14635 whole entry partner): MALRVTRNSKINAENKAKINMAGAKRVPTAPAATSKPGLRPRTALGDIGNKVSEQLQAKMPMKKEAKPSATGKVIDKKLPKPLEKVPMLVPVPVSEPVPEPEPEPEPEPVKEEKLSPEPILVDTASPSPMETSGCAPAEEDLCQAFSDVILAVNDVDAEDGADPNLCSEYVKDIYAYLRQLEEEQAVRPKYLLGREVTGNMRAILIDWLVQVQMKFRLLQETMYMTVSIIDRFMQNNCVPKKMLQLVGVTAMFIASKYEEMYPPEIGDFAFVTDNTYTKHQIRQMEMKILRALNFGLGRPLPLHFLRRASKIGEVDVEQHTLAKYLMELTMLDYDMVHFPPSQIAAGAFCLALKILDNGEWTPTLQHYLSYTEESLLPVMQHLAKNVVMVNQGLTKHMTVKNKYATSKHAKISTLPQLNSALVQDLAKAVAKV
SMILES,IC50 (CDK9/cyclinT1) [µM],IC50 (CDK2/cyclinA) [µM],IC50 (CDK5) [µM],IC50 (CDK7/cyclinH/MAT1) [µM],IC50 [1] [µM],IC50 (CDK1/cyclinB) [µM],IC50 (CDK4) [µM],inhibition of neointima formation (neointima formation)
"CC(=O)NCCCNc1nccc(-c2ccnc(Nc3cccc([N+](=O)[O-])c3)n2)c1C [Compound 25, N-(3-{3-Methyl-4-[2-(3-nitro-phenylamino)-pyrimidin-4-yl]-pyridin-2-ylamino}-propyl)-acetamide]",< 5,< 5,< 5,< 5,< 5,< 5,5 to 15,
"NCCCNc1ncccc1-c1ccnc(Nc2cccc(Cl)c2)n1 [Compound 55, N-{3-[2-(3-Chloro-phenylamino)-pyrimidin-4-yl]-pyridin-2-yl}-propane-1,3-diamine]",< 5,< 5,< 5,< 5,< 5,< 5,< 5,
COc1ccc(CNc2nc(N(CCO)CCO)nc3c2ncn3C(C)C)cc1 [CVT-313],,,,,,,,greater than 80%
"CC(=O)NCCCNc1cc(-c2nc(Nc3cccc(Cl)c3)ncc2C)ccn1 [Compound 32, N-(3-{4-[2-(3-Chloro-phenylamino)-5-methyl-pyrimidin-4-yl]-pyridin-2-ylamino}-propyl)-acetamide]",< 5,< 5,< 5,< 5,< 5,< 5,15 to 50,

# Continued, in another order:
IC50 (CDK9/cyclinT1) [µM],IC50 (CDK2/cyclinA) [µM],IC50 (CDK5) [µM],IC50 (CDK7/cyclinH/MAT1) [µM],IC50 [1] [µM],IC50 (CDK1/cyclinB) [µM],IC50 (CDK4) [µM],SMILES,inhibition of neointima formation (neointima formation)
< 5,< 5,< 5,> 50,< 5,< 5,5 to 15,"COc1cnccc1-c1ccnc(Nc2cccc(Cl)c2)n1 [Compound 45, (3-Chloro-phenyl)-[4-(3-methoxy-pyridin-4-yl)-pyrimidin-2-yl]-amine]",
< 5,< 5,< 5,> 50,> 50,< 5,15 to 50,"COc1ncccc1-c1ccnc(Nc2cccc(C#N)c2)n1 [Compound 91, 3-[4-(2-Methoxy-pyridin-3-yl)-pyrimidin-2-ylamino]-benzonitrile]",
< 5,< 5,< 5,< 5,< 5,< 5,5 to 15,"COc1cnccc1-c1ccnc(Nc2cccc(S(C)(=O)=O)c2)n1 [Compound 46, (3-Methanesulfonyl-phenyl)-[4-(3-methoxy-pyridin-4-yl)-pyrimidin-2-yl]-amine]",
< 5,< 5,< 5,< 5,< 5,< 5,< 5,"NCCNc1ncccc1-c1ccnc(Nc2cccc(Cl)c2)n1 [Compound 52, N-{3-[2-(3-Chloro-phenylamino)-pyrimidin-4-yl]-pyridin-2-yl}-ethane-1,2-diamine]",
